Measured values taken from patent US20060135624A1, “Natural compound useful for treating diabetes, its preparation and use” (JINGYU LIANG ET AL, priority 2002, published 2006).

Tests used:
[1] = tested on: mouse hyperglycemia induced by alloxan; assay: Time-effect relation of Sequoyitol to mouse hyperglycemia induced by alloxan; type: in vivo, Kunming mice; conditions: for blood-sugar level decreased compared to the control group: Sequoyitol 50 mg/kg p.o. 7 days
Description: 1. Experimental Methods^[1,2] • Alloxan was administrated to each of 30 mice by caudal vein injection with a dose of 65 mg/kg, and the mice were modeled according to the method of documents, divided into 3 groups according to blood-sugar values, […] according to […] of body weight, and the modeling group was administrated with the same volum of distilled water, separately. These administrations were conducted for continuous 7 days, and the mice were fasted for 2 hours before the last administration, and their blood-sugar levels were detected by glucose oxidase method at 1 2, 3 and 5 hours after the last administration.

[2] = tested on: mouse hyperglycemia induced by alloxan; assay: Effects of Sequoyitol on mouse hyperglycemia induced by alloxan; type: in vivo, Kunming mice
Description: 1. Experimental Methods^[1,2] • Among 60 mice, 10 mice were randomly selected as normal group, and the residual mice were administrated with 65 mg/kg alloxan by caudal vein injection, modeled according to the method of documents, and divided into 5 groups according to blood-sugar values, wherein 4 groups were perorally administrated with 25, 50 and 100 mg/kg of Sequoyitol and 75 mg/kg of phenformine according to 0.1 ml/10 g of body weight, respectively, and the normal group and modeling group were administrated with the same volum of distilled water, separately. These administrations were conducted for continuous 7 days. The blood-sugar levels were detected by glucose oxidase method. The pancreatic glands of the mice were soaked in 10% formalin, embedded with paraffin, sliced, and dyed with HE dye.

[3] = tested on: blood-sugar level of normal mice; assay: Effect of Sequoyitol on blood-sugar level of normal mice; type: in vivo, Kunming mice; conditions: Sequoyitol groups (25, 50, 100 mg/kg) oral 7 days
Description: 1. Experimental Method^[3] • 60 Mice were randomly divided into 5 groups, […] according to 0.1 ml/10 g of body weight, respectively, and the normal group was administrated with the same volum of the same volum of distilled water. These administrations were conducted for continuous 7 days. The blood-sugar levels were detected by glucose oxidase method.

[4] = tested on: mouse hyperglycemia induced by adrenalin; assay: Effect of Sequoyitol on mouse hyperglycemia induced by adrenalin; type: in vivo, Kunming mice; conditions: for hepatic glycogen level increased compared to the control group: adrenalin model; for blood-sugar level decreased compared to the control group: 30 minutes after adrenalin 0.2 mg/kg i.p.
Description: 1. Experimental Methods^[3] • 72 Mice were randomly divided into 6 groups, wherein 4 groups were orally administrated with 25, 50 and 100 mg/kg of Sequoyitol and 10 mg/kg of Glibenclamide according to 0,1 ml/10 g of body weight, respectively, and the normal group and modeling group were administrated with the same volum of distilled water. These administrations were conducted for continuous 7 days. The normal group was administrated with the same volum of physiological saline by injection, while other groups were administrated with 0.2 mg/kg of adrenalin by intra-abdominal injection. The blood-sugar levels were detected by glucose oxidase method after 30 minutes of administration. The livers of the mice were collected, and hepatic glycogen levels were detected by anthrone method.

[5] = tested on: mouse hyperglycemia induced by glucose; assay: Effect of Sequoyitol on mouse hyperglycemia induced by glucose; type: in vivo, Kunming mice
Description: 1. Experimental Method^[4] • 72 Mice were randomly divided into 6 groups, […] according to 0.1 ml/10 g of body weight, respectively, and the normal group and modeling group were administrated with the same volum of distilled water. These administrations were conducted for continuous 7 days. The normal group was administrated with the same volum of physiological saline by injection, while other groups were administrated with […] of glucose by intra-abdominal injection. After 30, 60, 90 and 120 minutes of administration, bloods were collected from venous plexus behind fossa orbitalis, the serums were separated, and the blood-sugar levels were separately detected by glucose oxidase method.

[6] = tested on: normal mice; assay: Test of acute toxicity by oral administration; type: in vivo; conditions: 18.95 g/kg and 9.47 g/kg drenched one time; executed after 7 days
Source text: 1) Experimental Method • 20 Normal mice (half male and half female) were divided into two groups (each group had 10 mice), and drenched with 18.95 g/kg and 9.47 g/kg one time, wherein the higher dose reached the maximum concentration and the maximum administration volume. The animals' responses were observed. The mice were executed after 7 days, and their organs were macroscopically observed.

[7] = tested on: normal mice; assay: Test of acute toxicity by intravenous administration; type: in vivo; conditions: 5.04 g/kg intravenous injection
Source text: 1) Experimental Method • 20 Normal mice (half male and half female) were administrated with 5.04 g/kg Sequoyitol (which reached the maximum concentration and the maximum intravenous administration volume) by intravenous injection. The animals' responses were observed. The mice were executed after 14 days, and their organs were macroscopically observed.

[8] = tested on: normal mice; assay: General pharmacology in mice; conditions: mouse, in vivo
Source text: (§1) • 1. Guidelines for Studying New Drugs (Pharmacy, Pharmacology, Toxicology), Bureau of Drug Administration, the Ministry of Health of the People's Republic of China • 2. Chen Q I, Methodology for Studying Pharmacology of Chinese Medicine, People' Medical Publishing House, 1st Edition, 1993, 118-119 III. Studies on General Pharmacology • The effects of Sequoyitol on general physical signs and spontaneous movement of normal mice, on Pentobarbital hours of sleep of mice, and on respiratory movement, blood pressure, cardiac rhythm and electrocardiogram of rats were observed.

[9] = tested on: rats; assay: General pharmacology in rats; conditions: rat, in vivo
Source text: as §1

[10] = Sequoyitol 25 mg/kg oral 7 days
[11] = Sequoyitol 100 mg/kg oral 7 days

COC1C(O)C(O)C(O)C(O)C1O (centres unmarked) [Sequoyitol, 5-O-methyl-myo-inositol]
effect of alleviating hyperglycemia compared with phenformine ([1]; 60 mg/kg Sequoyitol vs 75 mg/kg phenformine): higher than that of 75 mg/kg phenformine | blood-sugar level decreased compared to the control group ([1]; 1 hour after last administration): 100.0 mg/dL | blood-sugar level decreased compared to the control group ([1]; 2 hours after last administration): 140.7 mg/dL | blood-sugar level decreased compared to the control group ([1]; 3 hours after last administration): 193.9 mg/dL | blood-sugar level decreased compared to the control group ([1]; 5 hours after last administration): 174.6 mg/dL | alloxan-induced hyperglycemia compared to the control group ([2]; Sequoyitol 25 mg/kg p.o. 7 days): alleviated | blood-sugar level decreased compared to the control group ([2]; Sequoyitol 50 mg/kg p.o. 7 days): 195.2 mg/dL | blood-sugar level decreased compared to the control group ([2]; Sequoyitol 100 mg/kg p.o. 7 days): 306.8 mg/dL | number of pancreatic islands and number of islet cells (histopathologic examination) compared to the model group ([2]; Sequoyitol groups (25, 50, 100 mg/kg p.o. 7 days)): increased significantly | blood-sugar level compared with the normal group [3]: not significantly different | hepatic glycogen level increased compared to the control group ([4]; Sequoyitol 20 mg/kg (so in the source) oral 7 days): 1.24 mg/g of liver tissue | blood-sugar level decreased compared to the control group [4, 10]: 32.2 mg/dL | hepatic glycogen level increased compared to the control group [4, 10]: 1.76 mg/g of liver tissue | blood-sugar level decreased compared to the control group ([4]; Sequoyitol 50 mg/kg oral 7 days): 35.5 mg/dL | blood-sugar level decreased compared to the control group [4, 11]: 39.9 mg/dL | hepatic glycogen level increased compared to the control group [4, 11]: 1.24 mg/g of liver tissue | effect for alleviating hyperglycemia compared with phenformine ([5]; 100 mg/kg Sequoyitol vs 75 mg/kg phenformine): equivalent to that of 75 mg/kg phenformine | glucose-induced hyperglycemia compared to the control group ([5]; 25 and 50 mg/kg Sequoyitol groups, oral 7 days, 30, 60, 90 minutes after i.p. glucose): significantly alleviated | glucose-induced hyperglycemia compared to the control group ([5]; Sequoyitol 100 mg/kg oral 7 days, 30, 60, 90, 120 minutes after i.p. glucose): highly significantly alleviated | blood-sugar level decreased compared to the control group ([5]; Sequoyitol 100 mg/kg oral 7 days, 90 minutes after i.p. glucose): 24.5 mg/dL | main organs under macroscopic observation [6]: free of abnormality | main organs under macroscopic observation ([7]; executed after 14 days): free of abnormality | animals' responses after intravenous injection ([7]; observed 14 days): better health status, gloss fur, bright eyes, and good rang of motion | effect on Pentobarbital hours of sleep of mice [8]: did not significantly affect | effect on spontaneous movement of mice [8]: did not significantly affect | effect on blood pressure of rats [9]: did not significantly affect | effect on cardiac rhythm of rats [9]: did not significantly affect | effect on electrocardiogram of rats [9]: did not significantly affect | effect on respiratory movement of rats [9]: did not significantly affect
